Results reported in PMC10483676 (ACS Omega, 2023).

Target: urease enzyme from the Jack bean (Canavalia ensiformis) (Canavalia ensiformis, UniProt P07374)
Assay: In vitro urease assay
Type: biochemical

Chain of urease enzyme from the Jack bean (Canavalia ensiformis) (P07374 whole entry, looked up): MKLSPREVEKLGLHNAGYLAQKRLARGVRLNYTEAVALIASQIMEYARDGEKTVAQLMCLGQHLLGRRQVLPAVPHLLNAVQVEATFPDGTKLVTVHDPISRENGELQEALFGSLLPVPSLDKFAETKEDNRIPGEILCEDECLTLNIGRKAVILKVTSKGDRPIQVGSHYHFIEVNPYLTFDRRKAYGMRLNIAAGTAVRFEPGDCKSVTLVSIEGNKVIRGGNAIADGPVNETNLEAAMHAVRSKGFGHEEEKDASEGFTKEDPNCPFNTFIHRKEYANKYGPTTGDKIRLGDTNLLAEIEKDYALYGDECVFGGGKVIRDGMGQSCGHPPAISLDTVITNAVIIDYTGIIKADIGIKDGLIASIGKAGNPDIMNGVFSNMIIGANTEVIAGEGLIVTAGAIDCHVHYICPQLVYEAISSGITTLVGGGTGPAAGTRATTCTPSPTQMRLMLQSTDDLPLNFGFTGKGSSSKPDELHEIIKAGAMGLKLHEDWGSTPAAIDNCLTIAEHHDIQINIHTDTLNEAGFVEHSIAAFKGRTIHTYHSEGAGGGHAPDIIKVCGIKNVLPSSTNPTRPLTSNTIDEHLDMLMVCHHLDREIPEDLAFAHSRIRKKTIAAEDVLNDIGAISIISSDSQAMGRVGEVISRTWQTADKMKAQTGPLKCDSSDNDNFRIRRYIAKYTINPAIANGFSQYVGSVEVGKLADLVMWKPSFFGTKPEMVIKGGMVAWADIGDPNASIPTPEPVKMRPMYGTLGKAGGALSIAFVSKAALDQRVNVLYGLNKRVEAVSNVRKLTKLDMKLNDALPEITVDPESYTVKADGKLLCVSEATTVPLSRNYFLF

Row | SMILES | IC50 [µM] | inhibitory potential fold higher than thiourea (relative to thiourea IC50) [fold]
1 | Oc1ccc(OCc2nn3c(-c4cccc(Br)c4)nnc3s2)cc1 [4h] | 6.79 ± 0.24 | –
2 | COc1ccc(-c2nnc3sc(COc4ccc(O)cc4)nn23)cc1 [4b] | 25.2 ± 0.56 | –
3 | Cc1ccc(OCc2nn3c(-c4cccc(Br)c4)nnc3s2)cc1 [compound 4j] | 4.67 ± 0.15 | –
4 | Cc1ccccc1OCc1nn2c(-c3cccc(Br)c3)nnc2s1 [compound 4i] | 9.63 ± 0.32 | –
5 | Oc1ccccc1OCc1nn2c(-c3cccc(Br)c3)nnc2s1 [4g] | 4.5 ± 0.13 | –
6 | Fc1ccc(OCc2nn3c(-c4cccc(Br)c4)nnc3s2)cc1 [compound 4l] | 46.8 ± 0.63 | –
7 | COc1ccc(-c2nnc3sc(COc4ccccc4C)nn23)cc1 [compound 4c] | 12 ± 0.25 | –
8 | COc1ccc(-c2nnc3sc(COc4ccc(C)cc4)nn23)cc1 [compound 4d] | 39 ± 0.53 | –

Further lines, results first:

Row | IC50 [µM] | inhibitory potential fold higher than thiourea (relative to thiourea IC50) [fold] | SMILES
9 | 9.55 ± 0.41 | – | COc1ccc(C2=Nn3c(nnc3-c3cccc(Br)c3)SC2)cc1 [5i]
10 | 5.56 ± 0.12 | – | Cc1ccc(C2=Nn3c(nnc3-c3cccc(Br)c3)SC2)cc1 [5l]
11 | 5.16 ± 0.14 | – | COc1ccc(-c2nnc3n2N=C(c2ccc(C)cc2)CS3)cc1 [5d]
12 | 7.2 ± 0.18 | – | Brc1cccc(-c2nnc3n2N=C(c2cccc4ccccc24)CS3)c1 [5n]
13 | 3.33 ± 0.11 | ~6.5 | Fc1ccc(C2=Nn3c(nnc3-c3cccc(Br)c3)SC2)cc1 [compound 5k]
14 | 11.5 ± 0.38 | – | Clc1ccc(C2=Nn3c(nnc3-c3cccc(Br)c3)SC2)cc1 [5j]
15 | 7.72 ± 0.31 | – | O=[N+]([O-])c1ccc(C2=Nn3c(nnc3-c3cccc(Br)c3)SC2)cc1 [5o]
16 | 5.3 ± 0.17 | – | COc1ccc(-c2nnc3n2N=C(c2ccc(Cl)c(Cl)c2)CS3)cc1 [5h]
17 | 6.93 ± 0.14 | – | COc1ccc(-c2nnc3n2N=C(c2ccc(F)cc2)CS3)cc1 [5c]
18 | 13 ± 0.37 | – | Clc1ccc(C2=Nn3c(nnc3-c3cccc(Br)c3)SC2)cc1Cl [5p]
19 | 8.37 ± 0.16 | – | COc1ccc(-c2nnc3n2N=C(c2ccc(Cl)cc2)CS3)cc1 [5b]
20 | 10.5 ± 0.26 | – | COc1ccc(-c2nnc3n2N=C(c2cccc4ccccc24)CS3)cc1 [5f]
21 | 5.91 ± 0.13 | – | COc1ccc(C2=Nn3c(nnc3-c3ccc(OC)cc3)SC2)cc1 [5a]
